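Protocol summary: plate cells (96-well), add compound at 5 concentrations, incubate 48 h, interpolate endpoints linearly. The concentration for full growth arrest is given as TGI.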
What was measured:
Test in all cases: NCI-60 cell line screen, 48 h
SW-620 colon = system: SW-620 colon
LOX IMVI melanoma = system: LOX IMVI melanoma
NCI-H522 lung = system: NCI-H522 lung
NCI-H23 lung = system: NCI-H23 lung
MDA-MB-435 = system: MDA-MB-435
TK-10 renal = system: TK-10 renal
MALME-3M melanoma = system: MALME-3M melanoma
SK-OV-3 ovarian = system: SK-OV-3 ovarian
HCT-15 colon = system: HCT-15 colon
MCF7 breast = system: MCF7 breast
M14 melanoma = system: M14 melanoma
SN12C renal = system: SN12C renal
SNB-75 CNS = system: SNB-75 CNS
SK-MEL-5 melanoma = system: SK-MEL-5 melanoma
UO-31 renal = system: UO-31 renal
SR leukemia = system: SR leukemia
HCT-116 colon = system: HCT-116 colon
HT29 colon = system: HT29 colon
HL-60(TB) leukemia = system: HL-60(TB) leukemia
HOP-62 NSCLC = system: HOP-62 NSCLC
UACC-257 melanoma = system: UACC-257 melanoma
COLO 205 colon = system: COLO 205 colon
OVCAR-4 ovarian = system: OVCAR-4 ovarian
MDA-N = system: MDA-N
MDA-MB-231 breast = system: MDA-MB-231 breast
HCC-2998 colon = system: HCC-2998 colon
NCI-H226 lung = system: NCI-H226 lung
RXF 393 renal = system: RXF 393 renal
IGROV1 ovarian = system: IGROV1 ovarian
OVCAR-8 ovarian = system: OVCAR-8 ovarian
SF-539 CNS = system: SF-539 CNS
DU-145 prostate = system: DU-145 prostate
HOP-92 NSCLC = system: HOP-92 NSCLC
K-562 leukemia = system: K-562 leukemia
BT-549 breast = system: BT-549 breast
T-47D breast = system: T-47D breast
NCI-H460 lung = system: NCI-H460 lung
SF-295 CNS = system: SF-295 CNS
NCI/ADR-RES ovarian = system: NCI/ADR-RES ovarian
KM12 colon = system: KM12 colon
A549 NSCLC = system: A549 NSCLC
SF-268 CNS = system: SF-268 CNS
786-0 renal = system: 786-0 renal
CAKI-1 renal = system: CAKI-1 renal
CCRF-CEM leukemia = system: CCRF-CEM leukemia
ACHN renal = system: ACHN renal
UACC-62 melanoma = system: UACC-62 melanoma
SK-MEL-28 melanoma = system: SK-MEL-28 melanoma
HS 578T breast = system: HS 578T breast
SNB-19 CNS = system: SNB-19 CNS
RPMI-8226 leukemia = system: RPMI-8226 leukemia
EKVX NSCLC = system: EKVX NSCLC
MOLT-4 leukemia = system: MOLT-4 leukemia
PC-3 prostate = system: PC-3 prostate

Measured: TGI

O=C1NNC2(C(=O)N1)c1ccccc1-c1ccccc12
> 10 µM: all assays above
